This note sets out measurements from ChEMBL document CHEMBL5120866, “Design and Synthesis of Novel Celastrol Derivatives as Potential Anticancer Agents against Gastric Cancer Cells” (J Nat Prod, 2022).

In data set [1] the test system is BGC-823. Kind of data set: Induction of cell cycle arrest in human BGC-823 cells assessed as accumulation of cells at S phase at 0.6 uM incubated for 24 hrs by PI staining based flow cytometry method (reference value: 26.01%). The data set is classed as functional. For orientation: In flow cytometry, cells or beads pass a laser one at a time.
Data set [2] relates to BGC-823. Kind of data set: Induction of cell cycle arrest in human BGC-823 cells assessed as accumulation of cells at G0/G1 phase at 0.3 uM incubated for 24 hrs by PI staining based flow cytometry method (reference value: 50.66%). The data set is classed as functional.
The nature of data set [3]: Toxicity in athymic BALB/c nude mouse assessed as effect on kidney at 1.5 mg/kg, ip measured after 21 days by H and E staining based histopathological analysis. The data set is classed as organism-based. The following applies: in vivo, 504 h, time 21 day.
Data set [4] deals with BGC-823. In words: Induction of cell cycle arrest in human BGC-823 cells assessed as accumulation of cells at G0/G1 phase at 0.6 uM incubated for 24 hrs by PI staining based flow cytometry method (reference value: 50.66%). The data set is classed as functional.
The test system of data set [5] is BGC-823. Kind of data set: Upregulation of Bcl-2 family proteins in human BGC-823 cells at 0.15 to 0.6 uM incubated for 24 hrs by Western blot analysis. The data set is classed as functional, cell-based. The settings on record: dose 0.15-0.6 µM. Background: A western blot detects proteins with antibodies after separation by electrophoresis.
The test system of another data set is HepG2. In words: Antiproliferative activity against human HepG2 cells assessed as cell growth inhibition incubated for 48 hrs by MTT assay. The following applies: HepG2, 48 h. The data set is classed as functional, cell-based.
Data set [6] deals with BGC-823. Kind of data set: Antiproliferative activity against human BGC-823 cells assessed as cell growth inhibition incubated for 48 hrs by MTT assay. It counts as functional, cell-based. The settings on record: BGC-823, 48 h. On the technique in general: Tetrazolium dyes change colour on reduction, which living cells bring about.
Data set [7] relates to BGC-823. In words: Antitumor activity against human BGC-823 cells xenografted in athymic BALB/c nude mouse assessed as increase in cell necrosis at 1.5 mg/kg, ip measured after 21 days by H and E staining based analysis. The following applies: time 21.0 day. It counts as functional, organism-based.
A short description of data set [8]: Toxicity in athymic BALB/c nude mouse assessed as effect on spleen at 1.5 mg/kg, ip measured after 21 days by H and E staining based histopathological analysis. It counts as organism-based. The following applies: in vivo, 504 h, time 21 day.
The test system of data set [9] is BGC-823. In words: Induction of apoptosis in human BGC-823 cells assessed as increase in number of apoptotic cells at 0.15 to 0.6 uM incubated for 24 hrs by Hoechst 33342 staining based flourescence microscopy method. It counts as functional, cell-based. The following applies: dose 0.15-0.6 µM.
Data set [10] concerns BGC-823. Kind of data set: Downregulation of cyclin B1 protein expression in human BGC-823 cells at 0.15 to 0.6 uM incubated for 24 hrs by Western blot analysis. It counts as functional, cell-based. The following applies: dose 0.15-0.6 µM.
Data set [11] deals with BGC-823. In words: Induction of apoptosis in human BGC-823 cells assessed as early apoptotic cells at 0.15 uM incubated for 24 hrs by annexin-V-FITC and PI staining based flow cytometry analysis (reference value: 2.4%). The data set is classed as functional.
The nature of data set [12]: Toxicity in athymic BALB/c nude mouse assessed as change in body weight at 1.5 mg/kg, ip measured every 2 days for 21 days. The data set is classed as organism-based. The settings on record: in vivo, 504 h, time 21 day.
The test system of data set [13] is BGC-823. Kind of data set: Induction of ROS generation in human BGC-823 cells assessed as increase in intracellular ROS level incubated for 24 hrs by DCFH-DA staining based fluorescence microscopic analysis. It counts as functional, cell-based. The following applies: dose 0.3-0.6 µM, DDE = dose-dependent effect.
Data set [14] relates to BGC-823. Kind of data set: Downregulation of Cdc2 protein expression in human BGC-823 cells at 0.15 to 0.6 uM incubated for 24 hrs by Western blot analysis. It counts as functional, cell-based. The following applies: dose 0.15-0.6 µM.
A short description of data set [15]: Toxicity in athymic BALB/c nude mouse assessed as effect on lung at 1.5 mg/kg, ip measured after 21 days by H and E staining based histopathological analysis. The settings on record: in vivo, 504 h, time 21 day. The data set is classed as organism-based.

The source made the active and inactive calls. The calls are words filed in the database; no cut-off is given here.

On to `CCOC(=O)c1cnn(CCCOC(=O)[C@]2(C)CC[C@]3(C)CC[C@]4(C)C5=CC=C6C(=CC(=O)C(O)=C6C)[C@]5(C)CC[C@@]4(C)[C@@H]3C2)c1`, for which the Activity with BGC-823 [1] is recorded as 24.75%; in the data set with BGC-823 [2], 46.1%; in data set [3], “Non-Toxic”; in the data set with BGC-823 [4] it was 37.39%; in data set [8], “Non-Toxic”; in the data set on BGC-823 [11], 4.4%. In addition, the figures for the Activity entry (in [12]; with BGC-823 [13]; in data set [15]) were “Non-Toxic”, “Dde” and “Non-Toxic”, respectively. For the same compound, the result in the data set with BGC-823 [5], in the data set with BGC-823 [7], in the data set on BGC-823 [9], in the data set with BGC-823 [10] and in the data set on BGC-823 [14] was Active. In addition, the IC50 (usually the concentration that inhibits the measured activity by half) amounted to 350 nM in the data set on HepG2 and 210 nM in the data set with BGC-823 [6].
